According to US20070078097A1, “Method for treating intermittent claudication comprising the administration of propionyl L-carnitine and a concomitant physical training” (priority 2005, published 2007):

Assays:
claudicant patients = conditions: six patients; intravenous 3 g bolus followed by infusion of 2 mg/Kg/man for 30 minutes; Brevetti et al. 1988; cited from earlier work
[1] = system: patients with claudication; conditions: orally given; randomised placebo-controlled trials of the literature; cited from earlier work
platelet = conditions: literature (Pignatelli et al. 2003); cited from earlier work
[2] = system: patients with Intermittent Claudication (Leriche-Fontaine Class II); experiment: Maximum walking distance on treadmill, three phase III placebo-controlled studies; type: in vivo, human; conditions: for MWD at Month 6/Endpoint, Mean / MWD at Month 6/Endpoint, Median: PLC 2 g/day oral, 3 km/h; for MWD Change from Baseline to Endpoint, Mean / MWD Change from Baseline to Endpoint, Median: PLC 2 g/day
Source text: (§1) Three parallel, randomized, double-blind, placebo-controlled, phase III studies in patients with Intermittent Claudication (Leriche-Fontaine Class II) represent the basis for the above considerations. They are study ST 261 201 90 INT (hereinafter referred to as the European study); study ST 94 301 (hereinafter referred to as the Hiatt study); and ST 93 301, hereinafter referred to as the Porter study).
(§2) Diagnosis and main criteria for inclusion for these studies were similar, as follows: intermittent claudication of ascertained vascular origin; age between 40 and 80 years; lesions at iliac-femoral and/or femoro-popliteal level confirmed by angiographic or Doppler examination; no pain at rest (Leriche-Fontaine Class III) or ulcerative lesions (Leriche-Fontaine Class IV); history of claudication >1 year; dietary regime and alcohol intake stable during the study. All patients were strongly encouraged to stop smoking and exercise actively. The latter recommendation was to be achieved either through a supervised, vascular rehabilitation-based program, or via an unsupervised, home-based program.
A total of 316 subjects (PLC, 153 subjects; placebo, 163 subjects) were randomized in the primary intention-to-treat population (ITT) of the European study, which was conducted in 39 centers in West and East Europe, and tested PLC (2 g/day) for 12 months vs. placebo. Patients had to have a maximum walking distance (MWD) at baseline between 50-400 m. and variability over the three treadmill tests carried-out at baseline of ≦25%.
A total of 161 subjects (PLC, 85 subjects; placebo, 76 subjects) were randomized in the ITT population of the Hiatt study, which was performed in 10 centers in the USA and Russia, and tested PLC (2 g/day for 6 months) versus placebo.
A total of 155 subjects (ITT population: PLC, 80 subjects; placebo, 75 subjects) were randomized in the 6-month, Porter study, which was conducted in 16 US centers and tested PLC 2 g/day vs. placebo as its primary target population. All randomized patients had baseline MWD between 50-250 m and variability ≦25%.
These phase III studies evaluated physical performance as their primary efficacy parameter. This was assessed by the maximum walking capacity of patients on a treadmill: the European study used a fixed treadmill with 7% slope and 3 km/hour speed; the Hiatt study used a graded treadmill, starting at 0% slope and increasing by 2% every 2 minutes, with a 2 mph speed; the Porter study used a fixed treadmill with 12% slope and 2 mph speed.
Given the non-normality of response distributions for MWD, the comparison between PLC and placebo-treated patients was based on a non-parametric test, i.e., the Cochrane-Mantel-Haenszel test on the within-center, standardized mid-ranks (MODRIDITS) of changes over baseline, stratified by site.

[3] = system: patients with Intermittent Claudication (Leriche-Fontaine Class II); experiment: Quality of life questionnaires (PAD-related, SF-36, WIQ), O'Brien global score; type: in vivo, human
Source text: as §1, §2
The above studies also assessed quality of life (QoL) as their main secondary efficacy parameter: the European study used the ad-hoc validated PAD-related questionnaire, while the Hiatt and Porter studies used both the very well-known and validated Health Status Survey-Short Form 36 (SF-36) and the Walking Impairment Questionnaire (WIQ).
Similar results were obtained also when considering QoL. Since several questionnaires were used in each study, a global summary statistic was used in order to deal with this issue, as well as with the multiplicity of domains present in each of these questionnaires, i.e., the O'Brien test.

[4] = ITT with concomitant physical exercise, N = 54, P-value vs placebo 0.000
[5] = ITT without concomitant physical exercise, N = 264, P-value vs placebo 0.777
[6] = ITT with concomitant physical exercise, PLC N = 54, P-value vs placebo <0.001
[7] = ITT without concomitant physical exercise, PLC N = 261, P-value vs placebo 0.142

For `C[N+](C)(C)C[C@H](O)CC(=O)[O-]` [levocarnitine, L-carnitine], the “increase of venous lactate induced by walking test” value (claudicant patients) is given as “lowered” and the “walking distance in patients with claudication” value [1] is given as “significant increase”.

In the case of `CCC(=O)O[C@H](CC(=O)[O-])C[N+](C)(C)C` [PLC, propionyl L-carnitine], the “arachidonic acid accumulation in the phospholipids of platelet membrane” value (platelet) is given as “inhibits”, the “platelet thromboxane A2 and O2 formation” value (platelet) is given as “reduction” and the “walking distance in patients with claudication” value [1] is given as “significant increase”. The “MWD at Month 6/Endpoint, Mean” value ([2]; ITT with concomitant physical exercise, N = 54, converted to treadmill 7% slope, baseline mean 249.7) was 410.8 m, the “MWD at Month 6/Endpoint, Median” value ([2]; ITT with concomitant physical exercise, N = 54, treadmill 7% slope, baseline median 239.2) was 400.9 m and the “MWD Change from Baseline to Endpoint, Mean” value [2, 4] was 161.1 m. The “MWD Change from Baseline to Endpoint, Median” value [2, 4] was 154.8 m, the “MWD at Month 6/Endpoint, Mean” value ([2]; ITT without concomitant physical exercise, N = 264, treadmill 7% slope, baseline mean 205.6) was 325.3 m and the “MWD at Month 6/Endpoint, Median” value ([2]; ITT without concomitant physical exercise, N = 264, treadmill 7% slope, baseline median 171.7) was 225.5 m. The “MWD Change from Baseline to Endpoint, Mean” value [2, 5] was 119.7 m, the “MWD Change from Baseline to Endpoint, Median” value [2, 5] was 36.6 m and the “net PLC advantage over placebo in exercise performance at endpoint” value ([2]; overall ITT subjects of the three studies, p=0.08) was 18.2 m. For the same compound, the “Change in O'Brien scores for QoL questionnaires, Baseline to Endpoint, Mean” value [3, 6] was 0.56, the “Change in O'Brien scores for QoL questionnaires, Baseline to Endpoint, Median” value [3, 6] was 0.54 and the “Change in O'Brien scores for QoL questionnaires, Baseline to Endpoint, Mean” value [3, 7] was 0.51. The “Change in O'Brien scores for QoL questionnaires, Baseline to Endpoint, Median” value [3, 7] was 0.50 and the “QoL at endpoint compared to the placebo group” value ([3]; overall ITT subjects, p<0.001) was “significant improvement”.
